Laboratory results: the kinase profiling compilation of Christmann-Franck et al. (2016)

Assays:
Assay in all cases: KINOMEscan competition binding
Settings in all cases: compound 10.0 µM
PLK2 (human) = PLK2 (human) (UniProt Q9NYY3)
NEK4 (human) = NEK4 (human) (UniProt P51957)
CDK4 CCND1 (human) = CDK4 CCND1 (human) (UniProt P11802+P24385)
VRK2 (human) = VRK2 (human) (UniProt Q86Y07)
MAP3K6 (human) = MAP3K6 (human) (UniProt O95382)
ICK (human) = ICK (human) (UniProt Q9UPZ9)
STK38 (human) = STK38 (human) (UniProt Q15208)
GRK4 (human) = GRK4 (human) (UniProt P32298)
[1] = test system: EGFR (human), P00533 [G719S]
EGFR (human) = EGFR (human) (UniProt P00533)
GRK1 (human) = GRK1 (human) (UniProt Q15835)
GRK1 (human), sequence (Q15835 whole entry, looked up): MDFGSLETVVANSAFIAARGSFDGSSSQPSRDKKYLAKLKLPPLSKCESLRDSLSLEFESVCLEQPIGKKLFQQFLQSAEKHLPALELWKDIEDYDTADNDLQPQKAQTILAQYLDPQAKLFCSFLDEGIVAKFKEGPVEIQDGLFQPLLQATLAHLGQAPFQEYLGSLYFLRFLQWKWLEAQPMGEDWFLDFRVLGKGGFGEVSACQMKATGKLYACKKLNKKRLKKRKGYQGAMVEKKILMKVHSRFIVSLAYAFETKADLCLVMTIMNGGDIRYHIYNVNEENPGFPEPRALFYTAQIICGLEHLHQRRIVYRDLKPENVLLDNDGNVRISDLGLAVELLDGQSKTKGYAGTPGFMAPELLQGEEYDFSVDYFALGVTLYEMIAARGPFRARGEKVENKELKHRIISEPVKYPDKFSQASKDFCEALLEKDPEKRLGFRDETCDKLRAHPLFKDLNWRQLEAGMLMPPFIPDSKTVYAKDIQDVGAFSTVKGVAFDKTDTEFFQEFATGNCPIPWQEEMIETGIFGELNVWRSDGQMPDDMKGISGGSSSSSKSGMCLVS

TRPM6 (human) = TRPM6 (human) (UniProt Q9BX84)
CPK1 (P.falciparum) = test system: CPK1 (P.falciparum)
[2] = test system: EGFR (human), P00533 [L861Q]
IRAK4 (human) = IRAK4 (human) (UniProt Q9NWZ3)
DYRK1A (human) = DYRK1A (human) (UniProt Q13627)
HUNK (human) = HUNK (human) (UniProt P57058)
BTK (human) = BTK (human) (UniProt Q06187)
MAP2K5 (human) = MAP2K5 (human) (UniProt Q13163)
IRAK1 (human) = IRAK1 (human) (UniProt P51617)
IRAK1 (human), sequence (P51617 whole entry, looked up): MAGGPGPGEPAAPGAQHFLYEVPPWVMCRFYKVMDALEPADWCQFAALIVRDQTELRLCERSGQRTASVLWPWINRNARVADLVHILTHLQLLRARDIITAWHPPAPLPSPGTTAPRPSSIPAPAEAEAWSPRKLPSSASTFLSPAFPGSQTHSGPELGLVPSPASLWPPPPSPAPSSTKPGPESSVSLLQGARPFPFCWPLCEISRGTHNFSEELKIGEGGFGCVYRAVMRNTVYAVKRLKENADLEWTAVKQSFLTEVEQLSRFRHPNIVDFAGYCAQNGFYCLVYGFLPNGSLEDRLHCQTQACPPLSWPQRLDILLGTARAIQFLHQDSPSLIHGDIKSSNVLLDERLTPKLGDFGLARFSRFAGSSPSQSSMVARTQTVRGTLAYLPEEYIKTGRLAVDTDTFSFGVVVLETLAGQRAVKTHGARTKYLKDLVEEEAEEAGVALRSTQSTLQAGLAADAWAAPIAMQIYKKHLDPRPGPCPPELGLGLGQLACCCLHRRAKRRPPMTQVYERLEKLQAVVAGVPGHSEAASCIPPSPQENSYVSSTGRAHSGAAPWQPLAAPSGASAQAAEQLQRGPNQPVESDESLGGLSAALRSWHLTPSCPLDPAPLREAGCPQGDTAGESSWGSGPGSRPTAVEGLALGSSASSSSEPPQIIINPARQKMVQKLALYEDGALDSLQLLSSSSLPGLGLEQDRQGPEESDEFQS

PIP4K2C (human) = PIP4K2C (human) (UniProt Q8TBX8)
CDK4 CCND3 (human) = CDK4 CCND3 (human) (UniProt P11802+P30281)
PRKCI (human) = PRKCI (human) (UniProt P41743)
MAK (human) = MAK (human) (UniProt P20794)
STK39 (human) = STK39 (human) (UniProt Q9UEW8)
PIK3C2G (human) = PIK3C2G (human) (UniProt O75747)
NIM1 (human) = NIM1 (human) (UniProt Q8IY84)
NIM1 (human), sequence (Q8IY84 whole entry, looked up): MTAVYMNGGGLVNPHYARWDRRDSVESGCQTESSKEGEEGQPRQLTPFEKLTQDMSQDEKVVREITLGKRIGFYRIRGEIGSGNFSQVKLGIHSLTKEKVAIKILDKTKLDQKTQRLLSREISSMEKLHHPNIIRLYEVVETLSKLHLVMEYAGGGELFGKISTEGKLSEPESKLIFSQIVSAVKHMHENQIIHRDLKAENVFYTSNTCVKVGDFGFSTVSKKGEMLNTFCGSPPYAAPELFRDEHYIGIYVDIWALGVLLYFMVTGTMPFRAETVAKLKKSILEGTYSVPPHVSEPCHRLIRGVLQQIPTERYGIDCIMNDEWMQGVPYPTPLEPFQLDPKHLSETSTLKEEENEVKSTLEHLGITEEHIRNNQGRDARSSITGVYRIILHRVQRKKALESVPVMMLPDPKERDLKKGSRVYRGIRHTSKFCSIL

TAOK2 (human) = TAOK2 (human) (UniProt Q9UL54)
PKN3 (M.tuberculosis) = PKN3 (M.tuberculosis) (UniProt Q6P5Z2)
DSTYK (human) = DSTYK (human) (UniProt Q6XUX3)
DSTYK (human), sequence (Q6XUX3 whole entry, looked up): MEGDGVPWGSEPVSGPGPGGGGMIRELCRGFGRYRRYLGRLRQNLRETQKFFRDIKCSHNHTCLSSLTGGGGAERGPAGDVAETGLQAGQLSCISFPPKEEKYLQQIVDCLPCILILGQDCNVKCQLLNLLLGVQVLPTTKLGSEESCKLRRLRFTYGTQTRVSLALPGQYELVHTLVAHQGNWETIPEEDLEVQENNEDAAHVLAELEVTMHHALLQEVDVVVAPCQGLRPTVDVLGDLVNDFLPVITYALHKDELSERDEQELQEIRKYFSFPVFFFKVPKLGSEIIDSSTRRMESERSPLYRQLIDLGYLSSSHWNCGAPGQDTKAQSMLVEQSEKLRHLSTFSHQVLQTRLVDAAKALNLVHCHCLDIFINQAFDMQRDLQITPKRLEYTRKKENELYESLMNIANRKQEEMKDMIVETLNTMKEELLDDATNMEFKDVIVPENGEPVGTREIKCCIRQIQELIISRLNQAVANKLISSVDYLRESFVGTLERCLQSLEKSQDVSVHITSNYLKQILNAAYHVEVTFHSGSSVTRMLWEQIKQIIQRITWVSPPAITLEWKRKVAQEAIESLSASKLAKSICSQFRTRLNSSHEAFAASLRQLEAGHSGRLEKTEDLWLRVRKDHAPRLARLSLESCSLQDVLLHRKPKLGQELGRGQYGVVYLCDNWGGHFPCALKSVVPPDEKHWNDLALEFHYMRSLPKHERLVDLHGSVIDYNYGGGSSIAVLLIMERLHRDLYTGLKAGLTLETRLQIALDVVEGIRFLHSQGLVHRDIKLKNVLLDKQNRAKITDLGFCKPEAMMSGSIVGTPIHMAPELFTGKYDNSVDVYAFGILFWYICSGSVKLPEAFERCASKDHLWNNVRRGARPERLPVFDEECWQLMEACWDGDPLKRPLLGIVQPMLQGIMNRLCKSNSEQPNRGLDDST

PRPF4B (human) = PRPF4B (human) (UniProt Q13523)
STK32A (human) = STK32A (human) (UniProt Q8WU08)
PIK3CA (human) = PIK3CA (human) (UniProt P42336)
MET (human) = MET (human) (UniProt P08581)
PIP5K1C (human) = PIP5K1C (human) (UniProt O60331)
DDR1 (human) = DDR1 (human) (UniProt Q08345)
CDKL3 (human) = CDKL3 (human) (UniProt Q8IVW4)
CDKL3 (human), sequence (Q8IVW4 whole entry, looked up): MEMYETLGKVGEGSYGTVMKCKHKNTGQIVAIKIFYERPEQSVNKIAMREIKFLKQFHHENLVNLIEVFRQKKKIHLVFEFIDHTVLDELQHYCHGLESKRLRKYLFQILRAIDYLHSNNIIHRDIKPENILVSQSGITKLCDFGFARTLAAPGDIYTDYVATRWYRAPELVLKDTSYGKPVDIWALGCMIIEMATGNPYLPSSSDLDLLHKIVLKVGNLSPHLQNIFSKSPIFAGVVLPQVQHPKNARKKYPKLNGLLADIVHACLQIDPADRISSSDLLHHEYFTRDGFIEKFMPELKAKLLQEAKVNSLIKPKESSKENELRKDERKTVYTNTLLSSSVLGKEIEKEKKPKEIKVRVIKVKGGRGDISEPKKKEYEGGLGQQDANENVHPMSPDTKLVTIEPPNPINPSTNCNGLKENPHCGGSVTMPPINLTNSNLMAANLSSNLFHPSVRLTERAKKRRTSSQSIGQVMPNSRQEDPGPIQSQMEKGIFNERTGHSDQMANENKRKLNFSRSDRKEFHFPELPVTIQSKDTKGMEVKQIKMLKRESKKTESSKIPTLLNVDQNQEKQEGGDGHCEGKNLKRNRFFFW

CDK13 (human) = CDK13 (human) (UniProt Q14004)
[3] = test system: PIK3CA (human), P42336 [C420R]
SNRK (human) = SNRK (human) (UniProt Q9NRH2)
SNRK (human), sequence (Q9NRH2 whole entry, looked up): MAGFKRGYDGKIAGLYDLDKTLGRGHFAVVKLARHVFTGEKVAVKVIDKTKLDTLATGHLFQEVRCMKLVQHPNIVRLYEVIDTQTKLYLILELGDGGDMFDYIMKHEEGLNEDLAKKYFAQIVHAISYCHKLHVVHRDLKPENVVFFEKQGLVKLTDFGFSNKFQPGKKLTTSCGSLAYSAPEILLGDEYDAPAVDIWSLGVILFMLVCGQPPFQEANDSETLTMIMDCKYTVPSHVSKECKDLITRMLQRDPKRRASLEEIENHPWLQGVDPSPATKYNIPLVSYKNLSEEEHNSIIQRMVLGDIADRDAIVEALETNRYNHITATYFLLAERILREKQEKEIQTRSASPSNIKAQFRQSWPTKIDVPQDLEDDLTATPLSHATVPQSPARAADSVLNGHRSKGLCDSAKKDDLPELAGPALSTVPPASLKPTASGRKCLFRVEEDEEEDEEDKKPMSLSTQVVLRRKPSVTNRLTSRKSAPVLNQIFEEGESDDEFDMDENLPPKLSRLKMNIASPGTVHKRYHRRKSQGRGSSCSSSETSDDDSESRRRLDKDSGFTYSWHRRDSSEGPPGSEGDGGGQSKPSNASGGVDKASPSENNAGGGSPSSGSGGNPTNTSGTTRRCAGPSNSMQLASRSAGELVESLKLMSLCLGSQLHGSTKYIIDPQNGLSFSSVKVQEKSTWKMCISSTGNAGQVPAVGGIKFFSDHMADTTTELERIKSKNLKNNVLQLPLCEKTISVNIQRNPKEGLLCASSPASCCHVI

NEK4 (human), sequence (P51957 whole entry, looked up): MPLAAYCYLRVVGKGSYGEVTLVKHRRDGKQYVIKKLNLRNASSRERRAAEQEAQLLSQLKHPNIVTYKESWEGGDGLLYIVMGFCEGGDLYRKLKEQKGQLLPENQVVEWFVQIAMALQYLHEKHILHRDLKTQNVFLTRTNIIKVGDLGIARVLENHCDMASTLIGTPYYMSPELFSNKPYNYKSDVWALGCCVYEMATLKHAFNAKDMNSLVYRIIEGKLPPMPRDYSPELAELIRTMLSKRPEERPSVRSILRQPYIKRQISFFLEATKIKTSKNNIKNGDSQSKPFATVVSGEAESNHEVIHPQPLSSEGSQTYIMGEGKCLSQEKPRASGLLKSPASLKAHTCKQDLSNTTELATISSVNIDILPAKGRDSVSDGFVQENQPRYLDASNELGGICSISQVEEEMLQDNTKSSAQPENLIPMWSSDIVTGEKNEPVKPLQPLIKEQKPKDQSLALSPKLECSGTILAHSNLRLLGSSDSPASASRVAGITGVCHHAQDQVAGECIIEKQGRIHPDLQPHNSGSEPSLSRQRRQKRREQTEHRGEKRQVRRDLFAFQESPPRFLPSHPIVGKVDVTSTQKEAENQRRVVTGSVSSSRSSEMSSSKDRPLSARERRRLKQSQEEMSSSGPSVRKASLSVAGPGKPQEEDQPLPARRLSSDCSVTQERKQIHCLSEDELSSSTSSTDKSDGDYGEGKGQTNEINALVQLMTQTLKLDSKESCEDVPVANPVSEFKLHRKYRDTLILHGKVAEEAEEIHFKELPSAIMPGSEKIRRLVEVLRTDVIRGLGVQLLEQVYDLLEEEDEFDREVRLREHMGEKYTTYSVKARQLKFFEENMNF

Compound | kinase still bound, per cent of control (PLK2 (human)) | kinase still bound, per cent of control (NEK4 (human)) | kinase still bound, per cent of control (CDK4 CCND1 (human)) | kinase still bound, per cent of control (VRK2 (human)) | kinase still bound, per cent of control (MAP3K6 (human)) | kinase still bound, per cent of control (ICK (human)) | kinase still bound, per cent of control (STK38 (human)) | kinase still bound, per cent of control (GRK4 (human)) | kinase still bound, per cent of control [1] | kinase still bound, per cent of control (EGFR (human)) | kinase still bound, per cent of control (GRK1 (human)) | kinase still bound, per cent of control (TRPM6 (human)) | kinase still bound, per cent of control (CPK1 (P.falciparum)) | kinase still bound, per cent of control [2] | kinase still bound, per cent of control (IRAK4 (human)) | kinase still bound, per cent of control (DYRK1A (human)) | kinase still bound, per cent of control (HUNK (human)) | kinase still bound, per cent of control (BTK (human)) | kinase still bound, per cent of control (MAP2K5 (human)) | kinase still bound, per cent of control (IRAK1 (human)) | other results
CN(C)C/C=C/C(=O)Nc1cccc(Nc2ncc3c(n2)N(C)c2ccccc2C(=O)N3C)c1 | 37% | 87% | 78% | 73% | 94% | 70% | 74% | 66% | 67% | 69% | 100% | 91% | 74% | 73% | 73% | 73% | 47% | 42% | 45% | 19% | kinase still bound, per cent of control (PIP4K2C (human)): 6%; kinase still bound, per cent of control (CDK4 CCND3 (human)): 85%; kinase still bound, per cent of control (PRKCI (human)): 97%; kinase still bound, per cent of control (MAK (human)): 100%; kinase still bound, per cent of control (STK39 (human)): 100%; kinase still bound, per cent of control (PIK3C2G (human)): 76%; kinase still bound, per cent of control (NIM1 (human)): 21%; kinase still bound, per cent of control (TAOK2 (human)): 0%; kinase still bound, per cent of control (PKN3 (M.tuberculosis)): 42%; kinase still bound, per cent of control (DSTYK (human)): 18%; kinase still bound, per cent of control (PRPF4B (human)): 100%; kinase still bound, per cent of control (STK32A (human)): 100%; kinase still bound, per cent of control (PIK3CA (human)): 54%; kinase still bound, per cent of control (MET (human)): 48%; kinase still bound, per cent of control (PIP5K1C (human)): 11%; kinase still bound, per cent of control (DDR1 (human)): 5.4%; kinase still bound, per cent of control (CDKL3 (human)): 100%; kinase still bound, per cent of control (CDK13 (human)): 96%; kinase still bound, per cent of control [3]: 72%; kinase still bound, per cent of control (SNRK (human)): 58%
Cc1ccc(NC(=O)c2cccc(C(C)(C)C#N)c2)cc1Nc1ccc2ncn(C)c(=O)c2c1 | 99% | 89% | 61% | 100% | 100% | 100% | 100% | 100% | 37% | 37% | 100% | 100% | 0.75% | 34% | 83% | 79% | 100% | 66% | 0.7% | 75% | kinase still bound, per cent of control (PIP4K2C (human)): 100%; kinase still bound, per cent of control (CDK4 CCND3 (human)): 90%; kinase still bound, per cent of control (PRKCI (human)): 100%; kinase still bound, per cent of control (MAK (human)): 100%; kinase still bound, per cent of control (STK39 (human)): 100%; kinase still bound, per cent of control (PIK3C2G (human)): 88%; kinase still bound, per cent of control (NIM1 (human)): 100%; kinase still bound, per cent of control (TAOK2 (human)): 72%; kinase still bound, per cent of control (PKN3 (M.tuberculosis)): 100%; kinase still bound, per cent of control (DSTYK (human)): 78%; kinase still bound, per cent of control (PRPF4B (human)): 100%; kinase still bound, per cent of control (STK32A (human)): 100%; kinase still bound, per cent of control (PIK3CA (human)): 100%; kinase still bound, per cent of control (MET (human)): 89%; kinase still bound, per cent of control (PIP5K1C (human)): 75%; kinase still bound, per cent of control (DDR1 (human)): 0%; kinase still bound, per cent of control (CDKL3 (human)): 100%; kinase still bound, per cent of control (CDK13 (human)): 100%; kinase still bound, per cent of control [3]: 100%; kinase still bound, per cent of control (SNRK (human)): 100%
